This is an account of results in ChEMBL document CHEMBL1133069, “Highly sensitive and rapid detection of antibody catalysis by luminescent bacteria” (Bioorg Med Chem Lett, 2000).

Assay [1] can be described thus: Km in bacterium VhM42.
Assay [2] can be described thus: Kcat in bacterium VhM42.

On to `CCCCCCCCC(O)CC(C)=O` (configuration not stated), for which, in assay [1], the Km amounted to 190 µM. The k cat in assay [2] was found to be 1.67e-05 s⁻¹.
